Common to all, as to type: cell-based
The subject of assay [1] is Streptococcus pneumoniae ATCC700904. Kind of assay: In vitro antibacterial activity, microbroth dilution method (CLSI method), test bacterium C (erythromycin resistant). Conditions: read-out: MIC (minimum inhibitory concentration), test bacterium C. The protocol:
(§1) In vitro antibacterial activities of the compounds of the present invention against various test bacteria were measured according to the microbroth dilution method (CLSI method). Among them, the bacteria C, D and E are erythromycin resistant bacteria. The MIC values (minimum inhibitory concentration, μg/ml) for the test bacteria A and B are exemplified in Table 22.
(In general: Broth dilution looks for growth in wells or tubes with falling amounts of substance.)

The test system of assay [2] is Mycoplasma pneumoniae MSC04933. Kind of assay: In vitro antibacterial activity, microbroth dilution method (CLSI method), test bacterium E (erythromycin resistant). Conditions: read-out: MIC (minimum inhibitory concentration), test bacterium E. On the procedure: as §1
The test system of assay [3] is Streptococcus pyogenes M808. Kind of assay: In vitro antibacterial activity, microbroth dilution method (CLSI method), test bacterium D (erythromycin resistant). Conditions: read-out: MIC (minimum inhibitory concentration), test bacterium D. The protocol: as §1

Values after ≈ are worked out from the molar mass of the structure shown.

7 compounds from patent US9139609B2, “C-4″ position substituted macrolide derivative” (priority 2011, dated 2015) can be followed below.

For the compound `CC[C@H]1OC(=O)[C@H](C)[C@@H](O[C@H]2C[C@@](C)(OC)[C@@](O)(CN(C)CCN(C)C(C)(C)c3ccccc3OC)[C@H](C)O2)[C@H](C)[C@@H](O[C@@H]2O[C@H](C)C[C@H](N(C)C)[C@H]2O)[C@@](C)(OC)C[C@@H](C)C2=NCCN3C(=O)O[C@@]1(C)[C@H]3[C@H]2C` [Example 338], the MIC is 0.12 to 0.25 µg/mL (≈ 0.115 to 0.239 µM) in assay [1], at most 0.25 µg/mL in assay [2] and at most 2 µg/mL in assay [3].
For `CC[C@H]1OC(=O)[C@H](C)[C@@H](O[C@H]2C[C@@](C)(OC)[C@@](O)(CN(C)CCN(C)C(C)(C)c3ccccc3OC)[C@H](C)O2)[C@H](C)[C@@H](O[C@@H]2O[C@H](C)C[C@H](N(C)C)[C@H]2O)[C@@](C)(OC)C[C@@H](C)[C@@H]2NCCN3C(=O)O[C@@]1(C)[C@H]3[C@@H]2C` [Example 340], the MIC is 0.12 to 0.25 µg/mL (≈ 0.114 to 0.238 µM) in assay [1], at most 0.25 µg/mL in assay [2] and at most 2 µg/mL in assay [3].
Turning to `CC[C@H]1OC(=O)[C@H](C)[C@@H](O[C@H]2C[C@@](C)(OC)[C@@](O)(CN(C)CCN(C)C(C)(C)c3ccccc3OC)[C@H](C)O2)[C@H](C)[C@@H](O[C@@H]2O[C@H](C)C[C@H](N(C)C)[C@H]2O)[C@@]2(C)C[C@@H](C)C3(NCCN4C(=O)O[C@@]1(C)[C@H]4[C@H]3C)O2` [Example 341], the MIC in assay [1] was 0.12 to 0.25 µg/mL (≈ 0.116 to 0.242 µM); in assay [2], at most 0.25 µg/mL; in assay [3], at most 2 µg/mL.
As to `CC[C@H]1OC(=O)[C@H](C)[C@@H](O[C@H]2C[C@@](C)(OC)[C@@](O)(CN(C)CCN(C)C(C)(C)c3ccccc3OC)[C@H](C)O2)[C@H](C)[C@@H](O[C@@H]2O[C@H](C)C[C@H](N(C)C)[C@H]2O)[C@@](C)(OC(N)=O)C[C@@H](C)C(=O)[C@H](C)[C@H]2NC(=O)O[C@@]21C` [Example 342], the MIC in assay [1] is 0.12 to 0.25 µg/mL (≈ 0.114 to 0.238 µM); in assay [2], at most 0.25 µg/mL; in assay [3] it was at most 2 µg/mL.
Consider `CC[C@H]1OC(=O)[C@H](C)[C@@H](O[C@H]2C[C@@](C)(OC)[C@@](O)(CN(C)CCN(C)C(C)(C)c3ccccc3OC)[C@H](C)O2)[C@H](C)[C@@H](O[C@@H]2O[C@H](C)C[C@H](N(C)C)[C@H]2O)[C@@](C)(OC)C[C@@H](C)C(=O)[C@H](C)[C@H]2C(C#N)C(=O)O[C@@]21C` (stereo partly drawn) [Example 363], for which the MIC in assay [1] is 0.12 to 0.25 µg/mL (≈ 0.115 to 0.239 µM); in assay [2], at most 0.25 µg/mL; in assay [3], at most 2 µg/mL.
Regarding `CC[C@H]1OC(=O)[C@H](C)[C@@H](O[C@H]2C[C@@](C)(OC)[C@@](O)(CN(C)CCN(C)C)[C@H](C)O2)[C@H](C)[C@@H](O[C@@H]2O[C@H](C)C[C@H](N(C)C)[C@H]2O)[C@@](C)(OC)C[C@@H](C)C(=O)[C@H](C)[C@H]2C(SCCCn3cnc4c(N)ncnc43)C(=O)O[C@@]21C` (stereo partly drawn) [Example 364], the MIC is at most 0.06 µg/mL in assay [1], at most 0.25 µg/mL in assay [2] and at most 2 µg/mL in assay [3].
With `CC[C@H]1OC(=O)[C@H](C)[C@@H](O[C@H]2C[C@@](C)(OC)[C@@](O)(CN(C)CCN(C(C)C)C(C)C)[C@H](C)O2)[C@H](C)[C@@H](O[C@@H]2O[C@H](C)C[C@H](N(C)C)[C@H]2O)[C@@](C)(OC)C[C@@H](C)C(=O)[C@H](C)[C@H]2N(CCNS(C)(=O)=O)C(=O)O[C@]12C` [Example 404], the figures for the MIC in assay [1], in assay [2] and in assay [3] were 0.12 to 0.25 µg/mL (≈ 0.113 to 0.235 µM), at most 0.25 µg/mL and at most 2 µg/mL, respectively.
